{"source": "patent US20110178016A1", "about": "“PULSE PARATHYROID HORMONE FOR TREATMENT OF THE HEM[…], STROMAL CELL LOSS, AND VASCULAR INJURY RESULTING FROM ACUTE EXPOSURE TO LETHAL RADIATION” (priority 2008, published 2011)", "key": {"[1]": {"test_system": "mice exposed to lethal radiation (772 cGy)", "assay": "Survival of mice after lethal irradiation (772 cGy) with PTH treatment", "assay_type": "in vivo, B6 mice", "settings": "for Thirty day survival: no treatment 50%; for 49 day survival: vehicle 60%", "experimental": "In a study of 98 mice exposed to lethal irradiation, half received placebo (saline) and half received daily PTH 80 mcg/kg/day for 28 days. There was a survival advantage in the PTH treated group, 24/49 survived vs placebo, 16/49, (95% CI, 0.7707, 2.462).\n80 ug/day PTH therapy followed lethal irradiation (772 cGy) exposure. 49 mice were treated with daily PTH (80 mcg/kg/d sc×28 days) 24 hours following a lethal radiation exposure of 772 cGy and compared to 49 vehicle treated control animals. Outcome measures included platelet counts, survival, and other hematopoietic studies. When censoring for technical deaths, 46 animals were analyzed in the placebo group (daily saline injections) with 47 analyzed from the daily PTH 80 mcg/kg/day treatment. […] Thirty-day survival in the placebo group was 18/46 or 39%. Of the PTH treated animals 26/47 animals survived (55%, p=0.2).\nIn another set of dose finding experiments, the same radiation exposure was used (772 cGy). Three treatment groups were studied: (1) untreated (no placebo, n=8), (2) treated with 200 mcg/kg PTH daily beginning 24 hours after radiation exposure, n=12, (3) treated with 200 mcg/kg PTH twice daily beginning 24 hours after radiation exposure, n=12.\nComparison was made of animals treated with PTH, 200 ug/day, 200 ug twice daily (BID) vs those receiving no PTH treatment following lethal irradiation (772 cGy).\nThree groups of B6 mice underwent irradiation.\nGroup 1 received no treatment, n=8.\nGroup 2 received PTH, 200 micrograms/kg/day, n=10, first begun 24 hours following radiation exposure to 772 cGy and continued for 28 days.\nGroup 3 received the same duration of PTH but instead was treated twice daily, 200 micrograms/kg/day BID for a daily total dose of 400 mcg/kg/day, n=12.\nFour cohorts of B6 mice were irradiated to uniform, total body, midline tissue dose at a dose rate of 80+2.5 cGy/min to a dose of 772 cGy.\nGroup 1 received vehicle control (saline) treatment×28 days, beginning 24 hours after radiation, n=10.\nGroup 2 received PTH, 400 micrograms/kg/day, n=10, first begun 24 hours following radiation exposure to 772 cGy and continued for 28 days.\nGroup 3 received PTH, 1000 micrograms/kg/day, n=10, 24 hours following radiation, and then 400 mcg/kg/day for 7 days.\nGroup 4 received PTH, 400 micrograms/kg/day, n=10, 24 hours following radiation, and continued for 7 days."}, "[2]": {"assay": "Serum PTH levels in mice after final dose (Mesoscale)", "assay_type": "in vivo", "settings": "400 mcg/kg PTH, final dose on day 28", "experimental": "Bone marrow was analyzed for colony forming units (CFU) (FIGS. 9A and 9B), hematopoietic stem cell content. Serum was analyzed for PTH levels on the final day of the study to determine the duration of detectable PTH in the serum following the final dose."}, "[3]": {"test_system": "bone marrow colony forming units / CD34+ hematopoietic stem cells", "assay": "Bone marrow CFU and CD34+ cells in non-irradiated monkeys 24 hours after first PTH dose", "assay_type": "in vivo, cynomolgus monkeys", "settings": "non-irradiated CYNOs", "experimental": "Two cynomolgus monkeys (hereafter referred to as CYNOs) were treated with a 21 day course of daily subcutaneous PTH at either 100 mcg/kg (monkey 7801) or 50 mcg/kg (monkey 7872). Hematopoietic outcome measures included:\n(a) bone marrow analysis for colony forming units 24 hours after first dose of PTH;\n(b) bone marrow analysis for CD34+ hematopoietic stem cells 24 hours after first dose of PTH;"}}, "note": "Entries after “also recorded” stand apart in the source; their conditions may differ."}
{"compound": "CC[C@H](C)[C@H](NC(=O)[C@H](CCC(=O)O)NC(=O)[C@H](CO)NC(=O)[C@@H](NC(=O)[C@@H](N)CO)C(C)C)C(=O)N[C@@H](CCC(N)=O)C(=O)N[C@@H](CC(C)C)C(=O)N[C@@H](CCSC)C(=O)N[C@@H](Cc1cnc[nH]1)C(=O)N[C@@H](CC(N)=O)C(=O)N[C@@H](CC(C)C)C(=O)NCC(=O)N[C@@H](CCCCN)C(=O)N[C@@H](Cc1cnc[nH]1)C(=O)N[C@@H](CC(C)C)C(=O)N[C@@H](CC(N)=O)C(=O)N[C@@H](CO)C(=O)N[C@@H](CCSC)C(=O)N[C@@H](CCC(=O)O)C(=O)N[C@@H](CCCN=C(N)N)C(=O)N[C@H](C(=O)N[C@@H](CCC(=O)O)C(=O)N[C@@H](Cc1c[nH]c2ccccc12)C(=O)N[C@@H](CC(C)C)C(=O)N[C@@H](CCCN=C(N)N)C(=O)N[C@@H](CCCCN)C(=O)N[C@@H](CCCCN)C(=O)N[C@@H](CC(C)C)C(=O)N[C@@H](CCC(N)=O)C(=O)N[C@@H](CC(=O)O)C(=O)N[C@H](C(=O)N[C@@H](Cc1cnc[nH]1)C(=O)N[C@@H](CC(N)=O)C(=O)N[C@@H](Cc1ccccc1)C(=O)O)C(C)C)C(C)C", "note": "[PTH, Teriparatide]", "values": [{"measurement": "survival (survived/total)", "setting": "[1]; 98 mice, lethal irradiation, PTH 80 mcg/kg/day for 28 days, placebo 16/49", "result": "24/49"}, {"measurement": "reduction in mortality", "setting": "[1]; 772 cGy, 200 mcg/kg experiments, LD50/30 changed to LD25/30", "result": 25, "unit": "%"}, {"measurement": "thrombocytopenia duration or nadir", "setting": "[1]; 772 cGy, PTH 80 mcg/kg/day vs placebo", "result": "no significant difference"}, {"measurement": "Thirty day survival", "setting": "[1]; 772 cGy, PTH 200 mcg/kg daily for 28 days (8/12)", "result": 67, "unit": "%"}, {"measurement": "Thirty day survival", "setting": "[1]; 772 cGy, PTH 200 mcg/kg twice daily for 28 days (9/12)", "result": 75, "unit": "%"}, {"measurement": "49 day survival", "setting": "[1]; 772 cGy, PTH 400 mcg/kg/day x 7 days (Group 4), p=0.02", "result": 100, "unit": "%"}, {"measurement": "49 day survival", "setting": "[1]; 772 cGy, PTH 400 micrograms/kg/day x 28 days (Group 2, 9/10), p=0.05", "result": 90, "unit": "%"}, {"measurement": "49 day survival", "setting": "[1]; 772 cGy, PTH 1000 micrograms/kg/day then 400 mcg/kg/day for 7 days (Group 3, 9/10), p=0.05", "result": 90, "unit": "%"}, {"measurement": "preputial inflammation and abscess among survivors", "setting": "[1]; 1000 mcg/kg dose group, control survivors 3/6", "result": "⅙"}, {"measurement": "30-day survival", "setting": "[1]; 7 day course of PTH 400 mcg/kg/day following an LD50/30 radiation exposure", "result": 100, "unit": "%"}, {"measurement": "survival", "setting": "[1]; daily or twice doses of PTH, lethal irradiation dose expected to result in 50% death of mice (summary)", "result": 100, "unit": "%"}, {"measurement": "preputial inflammation and abscess / infection among survivors", "setting": "[1]; other PTH groups (400 mcg/kg/day x 28 days or x 7 days), control survivors 3/6", "result": "None were observed; also recorded: prevents infection"}, {"measurement": "PTH in sera after final PTH dose", "setting": "[2]", "result": "some persistence of PTH at 24 hours"}, {"measurement": "time of return of serum PTH to baseline after final dose", "setting": "[2]", "result": 48, "unit": "h"}, {"measurement": "CFU-GM and CFU-M in bone marrow aspirates", "setting": "[3]; 50 or 100 mcg/kg, 24 hours after first dose, more pronounced with higher dose", "result": "increases"}, {"measurement": "Erythroid, megakaryocyte lineages (BFU, CFU-GEMM) in bone marrow aspirate", "setting": "[3]; 50 or 100 mcg/kg, after first dose", "result": "increase"}, {"measurement": "bone marrow analysis, all lineages, by PTH dose", "setting": "[3]; 50 vs 100 mcg/kg", "result": "dose response"}, {"measurement": "percent of CD34+ hematopoietic stem cells vs pre-treatment levels", "setting": "[3]; 24 hours after first dose", "result": "increases"}]}
